Data reported in PMC9891369, “Deconvoluting binding sites in amyloid nanofibrils using time-resolved spectroscopy” (Chemical Science, 2023).

Assays:
[1] = target: T1, amyloid-β fibrils (Aβ1–40) (Homo sapiens, UniProt P05067); assay: time-resolved photoluminescence titration, two-site non-cooperative fit; type: binding; settings: read-out: Values ^a
T1 construct: gene APP; synthetic Aβ1–40, fibrillar

[2] = target: T1, amyloid-β fibrils (Aβ1–40); assay: time-resolved photoluminescence titration, two-site fit; type: binding

T1 sequence (P05067 672-711): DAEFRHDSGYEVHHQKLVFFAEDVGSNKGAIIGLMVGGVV

Structure (SMILES)	Kd [1] [µM]	Kd [2] [µM]
[Ru+2].c1ccc(-c2ccccn2)nc1.c1ccc(-c2ccccn2)nc1.c1cnc2c(c1)c1nc3nccnc3nc1c1cccnc12 [[Ru(bpy)2(dpqp)]^2+]	2.2 ± 0.5	
[Ru+2].c1ccc(-c2ccccn2)nc1.c1ccc(-c2ccccn2)nc1.c1ccc(-c2ccccn2)nc1 [[Ru(bpy)3]^2+]		4.6
